Reference: US10231954B2, “Neurodegenerative therapies” (LYTIX BIOPHARMA AS, priority 2014, dated 2019)
Like-named read-outs stand apart in the source and are kept apart here.

How the values were obtained:
Assay type in all cases: biochemical
Lck = Lck (Homo sapiens, UniProt P06239); experiment: Kinase profiling Lck; details: for remaining activity at 100 µM: read-out: residual kinase activity, Lck
Description: (§1) Any value less that 25 is considered to be highly significant inhibition.

EPH-A2 = EPH-A2 (Homo sapiens, UniProt P29317); experiment: Kinase profiling EPH-A2; details: for remaining activity at 100 µM: read-out: residual kinase activity, EPH-A2
Description: as §1

ROCK 2 = ROCK 2 (Homo sapiens, UniProt O75116); experiment: Kinase profiling ROCK 2; details: for remaining activity at 100 µM: read-out: residual kinase activity, ROCK 2
Description: as §1

PKCz = molecular target: T1, PKCz (Homo sapiens, UniProt Q05513); experiment: Kinase profiling PKCz; details: for remaining activity at 100 µM: read-out: residual kinase activity, PKCz
T1 sequence (Q05513 1-592): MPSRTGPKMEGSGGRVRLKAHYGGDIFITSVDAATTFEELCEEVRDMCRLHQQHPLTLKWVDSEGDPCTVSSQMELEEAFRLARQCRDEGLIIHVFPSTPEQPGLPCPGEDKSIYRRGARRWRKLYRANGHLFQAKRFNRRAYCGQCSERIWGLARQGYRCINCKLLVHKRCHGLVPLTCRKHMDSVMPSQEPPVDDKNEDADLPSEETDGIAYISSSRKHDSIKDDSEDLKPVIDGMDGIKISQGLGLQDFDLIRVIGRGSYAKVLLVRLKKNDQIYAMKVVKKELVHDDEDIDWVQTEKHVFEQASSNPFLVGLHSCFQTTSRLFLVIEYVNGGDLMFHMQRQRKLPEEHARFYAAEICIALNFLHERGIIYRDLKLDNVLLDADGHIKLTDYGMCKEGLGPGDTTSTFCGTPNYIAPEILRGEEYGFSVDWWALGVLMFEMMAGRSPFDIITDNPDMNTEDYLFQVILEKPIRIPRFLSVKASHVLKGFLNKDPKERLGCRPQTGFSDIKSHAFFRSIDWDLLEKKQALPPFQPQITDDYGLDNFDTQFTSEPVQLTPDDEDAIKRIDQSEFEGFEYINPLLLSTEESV
Description: as §1

JNK2 = JNK2 (Homo sapiens, UniProt P45984); experiment: Kinase profiling JNK2; details: for remaining activity at 100 µM: read-out: residual kinase activity, JNK2
Description: as §1

RSK2 = RSK2 (Homo sapiens, UniProt P51812); experiment: Kinase profiling RSK2; details: for remaining activity at 100 µM: read-out: residual kinase activity, RSK2
RSK2, sequence (P51812 whole entry, species assumed): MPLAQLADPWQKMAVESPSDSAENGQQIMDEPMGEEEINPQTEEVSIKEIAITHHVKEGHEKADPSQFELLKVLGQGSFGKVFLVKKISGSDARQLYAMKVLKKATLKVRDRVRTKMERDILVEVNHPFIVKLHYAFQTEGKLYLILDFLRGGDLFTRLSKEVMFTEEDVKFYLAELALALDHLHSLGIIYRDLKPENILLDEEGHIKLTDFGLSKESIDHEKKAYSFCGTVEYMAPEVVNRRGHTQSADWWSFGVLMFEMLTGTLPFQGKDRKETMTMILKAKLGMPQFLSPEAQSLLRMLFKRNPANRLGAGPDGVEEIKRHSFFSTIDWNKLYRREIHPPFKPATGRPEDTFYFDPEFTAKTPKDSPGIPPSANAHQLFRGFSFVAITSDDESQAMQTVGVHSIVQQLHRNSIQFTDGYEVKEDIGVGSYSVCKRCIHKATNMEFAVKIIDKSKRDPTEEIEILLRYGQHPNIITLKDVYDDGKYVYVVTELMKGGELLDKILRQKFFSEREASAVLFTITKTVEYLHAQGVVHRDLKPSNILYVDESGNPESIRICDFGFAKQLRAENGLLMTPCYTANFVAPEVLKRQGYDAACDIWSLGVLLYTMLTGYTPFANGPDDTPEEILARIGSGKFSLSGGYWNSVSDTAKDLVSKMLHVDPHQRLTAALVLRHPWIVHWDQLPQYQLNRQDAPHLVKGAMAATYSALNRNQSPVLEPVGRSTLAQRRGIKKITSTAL
Description: as §1

NEK6 = NEK6 (Homo sapiens, UniProt Q9HC98); experiment: Kinase profiling NEK6; details: for remaining activity at 100 µM: read-out: residual kinase activity, NEK6
NEK6, sequence (Q9HC98 whole entry, species assumed): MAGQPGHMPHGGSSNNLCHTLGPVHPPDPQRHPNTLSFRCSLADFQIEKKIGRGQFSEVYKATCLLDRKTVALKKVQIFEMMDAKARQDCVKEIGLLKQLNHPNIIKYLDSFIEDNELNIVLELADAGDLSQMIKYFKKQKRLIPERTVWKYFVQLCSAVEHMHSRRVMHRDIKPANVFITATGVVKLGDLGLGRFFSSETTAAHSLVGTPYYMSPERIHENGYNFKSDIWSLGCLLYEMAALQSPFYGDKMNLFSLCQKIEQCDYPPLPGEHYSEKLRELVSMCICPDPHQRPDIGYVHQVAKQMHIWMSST
Description: as §1

SRPK1 = SRPK1 (Homo sapiens, UniProt Q96SB4); experiment: Kinase profiling SRPK1; details: for remaining activity at 100 µM: read-out: residual kinase activity, SRPK1
SRPK1, sequence (Q96SB4 whole entry, species assumed): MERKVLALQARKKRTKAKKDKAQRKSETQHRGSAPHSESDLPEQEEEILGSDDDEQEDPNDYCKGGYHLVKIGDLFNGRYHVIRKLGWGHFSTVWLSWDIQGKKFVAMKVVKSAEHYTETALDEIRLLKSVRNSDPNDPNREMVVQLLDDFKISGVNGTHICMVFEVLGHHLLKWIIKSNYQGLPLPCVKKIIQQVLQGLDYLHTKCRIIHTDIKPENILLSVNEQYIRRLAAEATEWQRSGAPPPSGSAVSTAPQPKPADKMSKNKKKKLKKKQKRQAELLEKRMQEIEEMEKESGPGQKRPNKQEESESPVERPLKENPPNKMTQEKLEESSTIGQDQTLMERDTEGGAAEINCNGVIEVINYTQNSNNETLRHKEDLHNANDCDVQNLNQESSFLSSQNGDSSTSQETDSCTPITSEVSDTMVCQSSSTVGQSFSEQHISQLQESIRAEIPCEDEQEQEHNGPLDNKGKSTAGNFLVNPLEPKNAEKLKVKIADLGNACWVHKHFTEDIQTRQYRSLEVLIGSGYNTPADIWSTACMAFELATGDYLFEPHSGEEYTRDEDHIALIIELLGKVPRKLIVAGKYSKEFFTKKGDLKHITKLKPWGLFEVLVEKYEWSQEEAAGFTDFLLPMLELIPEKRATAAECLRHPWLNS
Description: as §1

EF2K = EF2K (Homo sapiens, UniProt O00418); experiment: Kinase profiling EF2K; details: for remaining activity at 100 µM: read-out: residual kinase activity, EF2K
Description: as §1

JAK2 = JAK2 (Homo sapiens, UniProt O60674); experiment: Kinase profiling JAK2; details: for remaining activity at 100 µM: read-out: residual kinase activity, JAK2
JAK2, sequence (O60674 whole entry, species assumed): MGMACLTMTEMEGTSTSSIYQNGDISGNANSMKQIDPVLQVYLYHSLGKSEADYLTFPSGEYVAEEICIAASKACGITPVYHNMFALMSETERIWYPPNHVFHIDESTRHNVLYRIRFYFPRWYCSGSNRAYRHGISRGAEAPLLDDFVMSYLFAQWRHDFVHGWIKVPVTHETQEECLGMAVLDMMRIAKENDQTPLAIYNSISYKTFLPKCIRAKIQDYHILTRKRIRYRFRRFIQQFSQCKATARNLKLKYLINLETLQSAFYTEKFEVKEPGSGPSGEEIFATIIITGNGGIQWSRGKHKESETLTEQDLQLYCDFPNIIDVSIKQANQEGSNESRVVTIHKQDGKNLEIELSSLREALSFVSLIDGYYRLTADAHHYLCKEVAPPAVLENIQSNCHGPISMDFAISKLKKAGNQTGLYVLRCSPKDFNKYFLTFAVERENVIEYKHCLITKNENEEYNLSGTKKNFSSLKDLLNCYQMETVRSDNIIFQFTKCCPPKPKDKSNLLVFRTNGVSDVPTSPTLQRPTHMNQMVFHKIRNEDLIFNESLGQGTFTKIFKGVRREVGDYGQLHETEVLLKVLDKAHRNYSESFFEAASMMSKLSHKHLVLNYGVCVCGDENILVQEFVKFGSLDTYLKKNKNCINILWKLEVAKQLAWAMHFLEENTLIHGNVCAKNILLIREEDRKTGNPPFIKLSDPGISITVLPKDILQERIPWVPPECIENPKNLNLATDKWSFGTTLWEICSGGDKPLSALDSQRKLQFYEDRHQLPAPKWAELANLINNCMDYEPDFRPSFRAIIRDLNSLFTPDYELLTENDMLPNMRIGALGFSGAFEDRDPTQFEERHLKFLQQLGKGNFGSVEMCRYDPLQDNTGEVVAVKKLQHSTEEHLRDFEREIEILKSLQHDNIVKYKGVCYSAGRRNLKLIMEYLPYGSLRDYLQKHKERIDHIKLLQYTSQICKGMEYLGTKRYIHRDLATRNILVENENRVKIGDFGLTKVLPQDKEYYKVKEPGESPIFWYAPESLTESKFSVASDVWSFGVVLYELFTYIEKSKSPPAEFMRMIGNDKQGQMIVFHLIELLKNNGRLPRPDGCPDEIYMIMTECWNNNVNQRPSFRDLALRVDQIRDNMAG
Description: as §1

HIPK2 = HIPK2 (Homo sapiens, UniProt Q9H2X6); experiment: Kinase profiling HIPK2; details: for remaining activity at 100 µM: read-out: residual kinase activity, HIPK2
Description: as §1

ERK2 = ERK2 (Homo sapiens, UniProt P28482); experiment: Kinase profiling ERK2; details: for remaining activity at 100 µM: read-out: residual kinase activity, ERK2
Description: as §1

Src = Src (Homo sapiens, UniProt P12931); experiment: Kinase profiling Src; details: for remaining activity at 100 µM: read-out: residual kinase activity, Src
Src, sequence (P12931 whole entry, species assumed): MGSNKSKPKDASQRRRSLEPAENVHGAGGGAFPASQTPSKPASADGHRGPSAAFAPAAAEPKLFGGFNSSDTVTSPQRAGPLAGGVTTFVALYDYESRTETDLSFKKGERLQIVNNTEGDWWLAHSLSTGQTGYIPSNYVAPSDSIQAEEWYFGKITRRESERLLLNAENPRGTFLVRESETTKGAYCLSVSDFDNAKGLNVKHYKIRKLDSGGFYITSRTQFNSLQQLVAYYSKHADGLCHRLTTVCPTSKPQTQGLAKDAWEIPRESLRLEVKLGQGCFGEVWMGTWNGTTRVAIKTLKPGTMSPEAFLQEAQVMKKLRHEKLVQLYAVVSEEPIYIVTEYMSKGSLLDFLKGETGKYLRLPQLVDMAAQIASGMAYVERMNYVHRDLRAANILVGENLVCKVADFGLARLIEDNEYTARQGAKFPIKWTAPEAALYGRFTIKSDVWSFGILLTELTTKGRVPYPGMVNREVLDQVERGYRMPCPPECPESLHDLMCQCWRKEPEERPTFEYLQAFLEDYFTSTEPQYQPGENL
Description: as §1

PKA = PKA (Homo sapiens, UniProt P17612); experiment: Kinase profiling PKA; details: for remaining activity at 100 µM: read-out: residual kinase activity, PKA
Description: as §1

CAMK1 = CAMK1 (Homo sapiens, UniProt Q14012); experiment: Kinase profiling CAMK1; details: for remaining activity at 100 µM: read-out: residual kinase activity, CAMK1
CAMK1, sequence (Q14012 whole entry, species assumed): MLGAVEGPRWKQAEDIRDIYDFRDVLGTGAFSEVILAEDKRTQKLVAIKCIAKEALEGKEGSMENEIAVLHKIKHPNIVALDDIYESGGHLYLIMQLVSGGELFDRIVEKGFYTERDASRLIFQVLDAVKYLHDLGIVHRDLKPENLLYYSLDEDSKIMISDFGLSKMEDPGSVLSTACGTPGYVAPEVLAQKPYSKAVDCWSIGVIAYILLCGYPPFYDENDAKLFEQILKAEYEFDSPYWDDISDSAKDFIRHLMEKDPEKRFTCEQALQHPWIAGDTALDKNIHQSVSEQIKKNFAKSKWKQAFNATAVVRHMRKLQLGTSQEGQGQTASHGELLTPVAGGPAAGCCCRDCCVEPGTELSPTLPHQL
Description: as §1

MKK1 = MKK1 (Homo sapiens, UniProt Q02750); experiment: Kinase profiling MKK1; details: for remaining activity at 100 µM: read-out: residual kinase activity, MKK1
MKK1, sequence (Q02750 whole entry, species assumed): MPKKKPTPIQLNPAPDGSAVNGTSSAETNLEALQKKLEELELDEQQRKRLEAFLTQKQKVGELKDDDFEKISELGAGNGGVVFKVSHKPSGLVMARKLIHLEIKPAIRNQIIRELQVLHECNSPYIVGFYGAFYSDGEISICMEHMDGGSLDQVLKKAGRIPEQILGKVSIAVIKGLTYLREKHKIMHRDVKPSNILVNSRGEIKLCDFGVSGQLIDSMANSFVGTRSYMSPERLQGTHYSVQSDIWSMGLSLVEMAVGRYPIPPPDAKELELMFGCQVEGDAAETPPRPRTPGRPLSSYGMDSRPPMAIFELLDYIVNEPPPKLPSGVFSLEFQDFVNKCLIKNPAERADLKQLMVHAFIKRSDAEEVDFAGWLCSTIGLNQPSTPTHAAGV
Description: as §1

PKBa = PKBa (Homo sapiens, UniProt P31749); experiment: Kinase profiling PKBa; details: for remaining activity at 100 µM: read-out: residual kinase activity, PKBa; for residual kinase activity, PKBa: 100 micromolar inhibitor concentration, 100 is no change
PKBa, sequence (P31749 whole entry): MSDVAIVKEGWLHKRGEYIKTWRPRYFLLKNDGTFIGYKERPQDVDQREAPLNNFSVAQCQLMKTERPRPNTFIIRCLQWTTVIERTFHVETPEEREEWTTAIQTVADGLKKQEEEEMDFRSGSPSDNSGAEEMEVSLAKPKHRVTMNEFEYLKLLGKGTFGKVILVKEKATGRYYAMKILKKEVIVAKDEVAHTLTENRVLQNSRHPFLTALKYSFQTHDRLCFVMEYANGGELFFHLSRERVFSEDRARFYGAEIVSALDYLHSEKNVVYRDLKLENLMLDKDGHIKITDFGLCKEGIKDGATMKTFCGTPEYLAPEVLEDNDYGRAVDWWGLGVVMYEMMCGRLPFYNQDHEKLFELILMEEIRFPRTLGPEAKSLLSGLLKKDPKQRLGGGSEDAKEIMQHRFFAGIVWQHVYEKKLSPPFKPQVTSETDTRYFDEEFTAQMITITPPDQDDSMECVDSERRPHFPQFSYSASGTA
Description: as §1

MKK6 = molecular target: T2, MKK6 (Homo sapiens, UniProt P52564); experiment: Kinase profiling MKK6; details: for remaining activity at 100 µM: read-out: residual kinase activity, MKK6
T2 sequence (P52564 1-334): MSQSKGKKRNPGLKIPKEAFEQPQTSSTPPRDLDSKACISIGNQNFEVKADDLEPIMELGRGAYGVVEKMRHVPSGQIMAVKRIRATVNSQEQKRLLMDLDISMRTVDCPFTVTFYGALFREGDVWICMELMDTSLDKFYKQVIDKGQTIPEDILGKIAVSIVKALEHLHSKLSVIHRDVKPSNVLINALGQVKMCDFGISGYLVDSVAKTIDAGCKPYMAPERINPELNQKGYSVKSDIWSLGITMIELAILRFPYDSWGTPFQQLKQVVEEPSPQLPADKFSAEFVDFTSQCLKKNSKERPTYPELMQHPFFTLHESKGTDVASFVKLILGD
Description: as §1

TTK = molecular target: T3, TTK (Homo sapiens, UniProt P33981); experiment: Kinase profiling TTK; details: for remaining activity at 100 µM: read-out: residual kinase activity, TTK
T3 sequence (P33981 1-857): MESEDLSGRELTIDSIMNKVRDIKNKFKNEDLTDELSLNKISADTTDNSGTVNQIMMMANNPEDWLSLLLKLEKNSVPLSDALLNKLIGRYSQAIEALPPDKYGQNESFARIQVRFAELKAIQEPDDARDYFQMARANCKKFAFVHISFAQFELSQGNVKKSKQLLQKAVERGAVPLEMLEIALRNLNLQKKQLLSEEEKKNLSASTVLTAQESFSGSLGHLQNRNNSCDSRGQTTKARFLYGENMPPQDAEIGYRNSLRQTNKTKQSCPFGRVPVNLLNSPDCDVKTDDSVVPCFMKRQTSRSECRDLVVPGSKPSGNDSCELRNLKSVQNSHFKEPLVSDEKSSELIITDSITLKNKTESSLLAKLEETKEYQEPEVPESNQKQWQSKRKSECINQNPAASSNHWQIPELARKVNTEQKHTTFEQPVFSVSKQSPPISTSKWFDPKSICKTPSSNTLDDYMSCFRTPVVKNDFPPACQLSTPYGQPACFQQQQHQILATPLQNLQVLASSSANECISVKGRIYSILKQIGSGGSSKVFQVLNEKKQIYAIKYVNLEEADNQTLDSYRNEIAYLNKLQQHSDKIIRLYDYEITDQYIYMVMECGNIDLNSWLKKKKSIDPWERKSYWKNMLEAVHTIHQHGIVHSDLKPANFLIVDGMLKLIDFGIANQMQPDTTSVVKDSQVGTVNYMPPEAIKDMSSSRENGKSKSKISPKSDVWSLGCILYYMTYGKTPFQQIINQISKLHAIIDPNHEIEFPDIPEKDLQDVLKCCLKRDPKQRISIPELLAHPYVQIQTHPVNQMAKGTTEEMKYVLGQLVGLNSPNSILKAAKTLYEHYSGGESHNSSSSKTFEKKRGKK
Description: as §1

MKK2 = MKK2 (Homo sapiens, UniProt P36507); experiment: Kinase profiling MKK2; details: for remaining activity at 100 µM: read-out: residual kinase activity, MKK2
MKK2, sequence (P36507 whole entry, species assumed): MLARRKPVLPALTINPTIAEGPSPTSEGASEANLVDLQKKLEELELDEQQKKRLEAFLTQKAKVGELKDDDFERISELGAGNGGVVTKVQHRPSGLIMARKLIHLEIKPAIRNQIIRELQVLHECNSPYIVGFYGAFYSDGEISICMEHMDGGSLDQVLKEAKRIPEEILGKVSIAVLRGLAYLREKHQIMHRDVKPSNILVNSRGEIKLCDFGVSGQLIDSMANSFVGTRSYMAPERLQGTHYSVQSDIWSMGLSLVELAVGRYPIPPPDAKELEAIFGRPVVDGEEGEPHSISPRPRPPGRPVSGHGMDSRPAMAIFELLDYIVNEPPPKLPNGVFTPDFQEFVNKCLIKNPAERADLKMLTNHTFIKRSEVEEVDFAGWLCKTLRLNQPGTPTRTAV
Description: as §1

[1] = 100 micromolar inhibitor concentration, 100 is no change

CC(=O)Nc1nc2cc(O)ccc2s1 [Compound 01-66, N-(5-hydroxybenzo[d]thiazol-2-yl)acetamide]
remaining activity at 100 µM (Lck): 69% | remaining activity at 100 µM (EPH-A2): 67% | remaining activity at 100 µM (ROCK 2): 56% | remaining activity at 100 µM (PKCz): 98% | remaining activity at 100 µM (JNK2): 63% | remaining activity at 100 µM (RSK2): 66% | remaining activity at 100 µM (NEK6): 82% | remaining activity at 100 µM (SRPK1): 59% | remaining activity at 100 µM (EF2K): 76% | remaining activity at 100 µM (JAK2): 65% | remaining activity at 100 µM (HIPK2): 20% | remaining activity at 100 µM (ERK2): 104% | remaining activity at 100 µM (Src): 45% | remaining activity at 100 µM (PKA): 95% | remaining activity at 100 µM (CAMK1): 69% | remaining activity at 100 µM (MKK1): 31% | remaining activity at 100 µM (PKBa): 87% | remaining activity at 100 µM (MKK6): 70% | remaining activity at 100 µM (TTK): 39% | remaining activity at 100 µM (MKK2): 42%

CC(=O)Nc1nc2ccc(O)cc2s1 [Compound 01-71]
remaining activity at 100 µM (Lck; [1]): 192% | remaining activity at 100 µM (EPH-A2; [1]): 66% | remaining activity at 100 µM (ROCK 2; [1]): 34% | remaining activity at 100 µM (PKCz; [1]): 74% | remaining activity at 100 µM (JNK2; [1]): 82% | remaining activity at 100 µM (RSK2; [1]): 48% | remaining activity at 100 µM (NEK6; [1]): 75% | remaining activity at 100 µM (SRPK1; [1]): 44% | remaining activity at 100 µM (EF2K; [1]): 75% | remaining activity at 100 µM (JAK2; [1]): 43% | remaining activity at 100 µM (HIPK2; [1]): 14% | remaining activity at 100 µM (ERK2; [1]): 83% | remaining activity at 100 µM (Src; [1]): 57% | remaining activity at 100 µM (PKA; [1]): 70% | remaining activity at 100 µM (CAMK1; [1]): 52% | remaining activity at 100 µM (MKK1; [1]): 35% | remaining activity at 100 µM (PKBa): 87% | remaining activity at 100 µM (MKK6; [1]): 78% | remaining activity at 100 µM (TTK; [1]): 31% | remaining activity at 100 µM (MKK2; [1]): 48%

O=C(Nc1nc2cc(O)ccc2s1)c1cccnc1 [Compound 03-33]
residual kinase activity, Lck (Lck; [1]): 105 | residual kinase activity, EPH-A2 (EPH-A2; [1]): 108 | residual kinase activity, ROCK 2 (ROCK 2; [1]): 53 | residual kinase activity, PKCz (PKCz; [1]): 105 | residual kinase activity, JNK2 (JNK2; [1]): 92 | residual kinase activity, RSK2 (RSK2; [1]): 85 | residual kinase activity, NEK6 (NEK6; [1]): 107 | residual kinase activity, SRPK1 (SRPK1; [1]): 58 | residual kinase activity, EF2K (EF2K; [1]): 106 | residual kinase activity, JAK2 (JAK2; [1]): 70 | residual kinase activity, HIPK2 (HIPK2; [1]): 52 | residual kinase activity, ERK2 (ERK2; [1]): 107 | residual kinase activity, Src (Src; [1]): 75 | residual kinase activity, PKA (PKA; [1]): 102 | residual kinase activity, CAMK1 (CAMK1; [1]): 104 | residual kinase activity, MKK1 (MKK1; [1]): 89 | residual kinase activity, PKBa (PKBa): 100 | residual kinase activity, MKK6 (MKK6; [1]): 122 | residual kinase activity, TTK (TTK; [1]): 45 | residual kinase activity, MKK2 (MKK2; [1]): 85

O=C(Nc1nc2cc(O)ccc2s1)c1ccccn1 [Compound 03-13]
residual kinase activity, Lck (Lck; [1]): 77 | residual kinase activity, EPH-A2 (EPH-A2; [1]): 81 | residual kinase activity, ROCK 2 (ROCK 2; [1]): 96 | residual kinase activity, PKCz (PKCz; [1]): 102 | residual kinase activity, JNK2 (JNK2; [1]): 103 | residual kinase activity, RSK2 (RSK2; [1]): 72 | residual kinase activity, NEK6 (NEK6; [1]): 107 | residual kinase activity, SRPK1 (SRPK1; [1]): 57 | residual kinase activity, EF2K (EF2K; [1]): 94 | residual kinase activity, JAK2 (JAK2; [1]): 98 | residual kinase activity, HIPK2 (HIPK2; [1]): 43 | residual kinase activity, ERK2 (ERK2; [1]): 100 | residual kinase activity, Src (Src; [1]): 70 | residual kinase activity, PKA (PKA; [1]): 102 | residual kinase activity, CAMK1 (CAMK1; [1]): 111 | residual kinase activity, MKK1 (MKK1; [1]): 107 | residual kinase activity, PKBa (PKBa): 107 | residual kinase activity, MKK6 (MKK6; [1]): 105 | residual kinase activity, TTK (TTK; [1]): 53 | residual kinase activity, MKK2 (MKK2; [1]): 82

CC(=O)Nc1nc2cc(C)ccc2s1 [Compound 03-76]
residual kinase activity, Lck (Lck; [1]): 120 | residual kinase activity, EPH-A2 (EPH-A2; [1]): 93 | residual kinase activity, ROCK 2 (ROCK 2; [1]): 79 | residual kinase activity, PKCz (PKCz; [1]): 101 | residual kinase activity, JNK2 (JNK2; [1]): 105 | residual kinase activity, RSK2 (RSK2; [1]): 96 | residual kinase activity, NEK6 (NEK6; [1]): 107 | residual kinase activity, SRPK1 (SRPK1; [1]): 73 | residual kinase activity, EF2K (EF2K; [1]): 110 | residual kinase activity, JAK2 (JAK2; [1]): 51 | residual kinase activity, HIPK2 (HIPK2; [1]): 51 | residual kinase activity, ERK2 (ERK2; [1]): 96 | residual kinase activity, Src (Src; [1]): 79 | residual kinase activity, PKA (PKA; [1]): 105 | residual kinase activity, CAMK1 (CAMK1; [1]): 90 | residual kinase activity, MKK1 (MKK1; [1]): 73 | residual kinase activity, PKBa (PKBa): 104 | residual kinase activity, MKK6 (MKK6; [1]): 113 | residual kinase activity, TTK (TTK; [1]): 49 | residual kinase activity, MKK2 (MKK2; [1]): 155
